Data published in BigSolDB 2.1.

CC(C)C[C@H](NC(=O)OCC1c2ccccc2-c2ccccc21)C(=O)O
solubility (mole fraction)
Conditions | in acetone | in acetonitrile | in ethanol | in ethyl acetate | in isopropanol | in methanol | in methyl acetate | in n-butanol | in n-propanol
283.15 K | 0.0724 | 0.00333 | 0.0256 | 0.0468 | 0.0166 | 0.0288 | 0.0246 | 0.0198 | 0.0218
288.15 K | 0.0773 | 0.00382 | 0.0284 | 0.0496 | 0.0185 | 0.033 | 0.0279 | 0.0216 | 0.0245
293.15 K | 0.0838 | 0.0047 | 0.0324 | 0.0536 | 0.0209 | 0.0384 | 0.0318 | 0.0258 | 0.0278
298.15 K | 0.0927 | 0.0055 | 0.0379 | 0.0607 | 0.0272 | 0.0455 | 0.0372 | 0.0295 | 0.0317
303.15 K | 0.101 | 0.00689 | 0.0443 | 0.0692 | 0.0352 | 0.0543 | 0.0428 | 0.0354 | 0.0372
308.15 K | 0.108 | 0.00832 | 0.0522 | 0.0782 | 0.0441 | 0.0621 | 0.0487 | 0.0456 | 0.0464
313.15 K | 0.117 | 0.0104 | 0.0614 | 0.0862 | 0.0551 | 0.0771 | 0.0554 | 0.0565 | 0.0574
318.15 K | 0.131 | 0.0126 | 0.0716 | 0.0961 | 0.0687 | 0.106 | 0.063 | 0.0687 | 0.0691
323.15 K | 0.142 | 0.0166 | 0.0854 | 0.106 | 0.0844 | 0.137 | 0.0711 | 0.086 | 0.0853
